Test results from PubChem BioAssay (NCI).
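Abbreviation: GI50, concentration required for 50% inhibition of growth. The concentration for full growth arrest is given as TGI.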

Legend:
Assay in all cases: NCI anticancer screen, dose series, 384-well format
[1] = system: NCI-H460 NSCLC
[2] = system: HCC-2998 colon
[3] = system: HT29 colon
[4] = system: HCT-116 colon
[5] = system: NCI-H23 lung
[6] = system: SF-295 CNS
[7] = system: KM12 colon
[8] = system: UACC-257 melanoma
[9] = system: OVCAR-3 ovarian
[10] = system: SR leukemia
[11] = system: UO-31 renal
[12] = system: MCF7 breast
[13] = system: COLO 205 colon
[14] = system: MDA-MB-435 melanoma
[15] = system: SF-268 CNS
[16] = system: M14 melanoma
[17] = system: UACC-62 melanoma
[18] = system: SK-OV-3 ovarian
[19] = system: MALME-3M melanoma
[20] = system: SK-MEL-28 melanoma
[21] = system: DU-145 prostate
[22] = system: BT-549 breast
[23] = system: SNB-75 CNS
[24] = system: A549 NSCLC
[25] = system: SF-539 CNS
[26] = system: SK-MEL-2 melanoma
[27] = system: NCI-H322M lung
[28] = system: CAKI-1 renal
[29] = system: SK-MEL-5 melanoma
[30] = system: SW-620 colon
[31] = system: T-47D breast
[32] = system: SNB-19 CNS
[33] = system: K-562 leukemia
[34] = system: NCI-H522 lung
[35] = system: MOLT-4 leukemia
[36] = system: NCI-H226 lung
[37] = system: ACHN renal
[38] = system: PC-3 prostate
[39] = system: SN12C renal
[40] = system: HOP-92 NSCLC
[41] = system: 786-0 renal
[42] = system: CCRF-CEM leukemia
[43] = system: HCT-15 colon
[44] = system: RPMI-8226 leukemia
[45] = system: A498 renal
[46] = system: TK-10 renal
[47] = system: EKVX NSCLC

CC(=O)OC[C@H]1O[C@@H](n2ccc(=O)[nH]c2=O)[C@H](OC(C)=O)[C@@H]1OC(C)=O
GI50 [1]: > 100 µM | TGI [1]: > 100 µM | GI50 [2]: > 100 µM | TGI [2]: > 100 µM | GI50 [3]: > 100 µM | TGI [3]: > 100 µM | GI50 [4]: > 100 µM | TGI [4]: > 100 µM | GI50 [5]: > 100 µM | TGI [5]: > 100 µM | GI50 [6]: > 100 µM | TGI [6]: > 100 µM | GI50 [7]: > 100 µM | TGI [7]: > 100 µM | GI50 [8]: > 100 µM | TGI [8]: > 100 µM | GI50 [9]: > 100 µM | TGI [9]: > 100 µM | GI50 [10]: > 100 µM | TGI [10]: > 100 µM | GI50 [11]: > 100 µM | TGI [11]: > 100 µM | GI50 [12]: > 100 µM | TGI [12]: > 100 µM | GI50 [13]: > 100 µM | TGI [13]: > 100 µM | GI50 [14]: > 100 µM | TGI [14]: > 100 µM | GI50 [15]: > 100 µM | TGI [15]: > 100 µM | GI50 [16]: > 100 µM | TGI [16]: > 100 µM | GI50 [17]: > 100 µM | TGI [17]: > 100 µM | GI50 [18]: > 100 µM | TGI [18]: > 100 µM | GI50 [19]: > 100 µM | TGI [19]: > 100 µM | GI50 [20]: > 100 µM | TGI [20]: > 100 µM | GI50 [21]: > 100 µM | TGI [21]: > 100 µM | GI50 [22]: > 100 µM | TGI [22]: > 100 µM | GI50 [23]: > 100 µM | TGI [23]: > 100 µM | GI50 [24]: > 100 µM | TGI [24]: > 100 µM | GI50 [25]: > 100 µM | TGI [25]: > 100 µM | GI50 [26]: > 100 µM | TGI [26]: > 100 µM | GI50 [27]: > 100 µM | TGI [27]: > 100 µM | GI50 [28]: > 100 µM | TGI [28]: > 100 µM | GI50 [29]: > 100 µM | TGI [29]: > 100 µM | GI50 [30]: > 100 µM | TGI [30]: > 100 µM | GI50 [31]: > 100 µM | TGI [31]: > 100 µM | GI50 [32]: > 100 µM | TGI [32]: > 100 µM | GI50 [33]: > 100 µM | TGI [33]: > 100 µM | GI50 [34]: > 100 µM | TGI [34]: > 100 µM | GI50 [35]: > 100 µM | TGI [35]: > 100 µM | GI50 [36]: > 100 µM | TGI [36]: > 100 µM | GI50 [37]: > 100 µM | TGI [37]: > 100 µM | GI50 [38]: > 100 µM | TGI [38]: > 100 µM | GI50 [39]: > 100 µM | TGI [39]: > 100 µM | GI50 [40]: > 100 µM | TGI [40]: > 100 µM | GI50 [41]: > 100 µM | TGI [41]: > 100 µM | GI50 [42]: > 100 µM | TGI [42]: > 100 µM | GI50 [43]: > 100 µM | TGI [43]: > 100 µM | GI50 [44]: > 100 µM | TGI [44]: > 100 µM | GI50 [45]: > 100 µM | TGI [45]: > 100 µM | GI50 [46]: > 100 µM | TGI [46]: > 100 µM | GI50 [47]: > 100 µM | TGI [47]: > 100 µM

C#Cc1cccc(Nc2ncnc3cc(OCCOC)c(OCCOC)cc23)c1
GI50 [1]: 9.81 µM | TGI [1]: > 100 µM | GI50 [2]: 48.4 µM | TGI [2]: > 100 µM | GI50 [3]: > 90.8 µM | TGI [3]: > 100 µM | GI50 [4]: 11.6 µM | TGI [4]: > 100 µM | GI50 [5]: 25.2 µM | TGI [5]: > 100 µM | GI50 [6]: > 51.9 µM | TGI [6]: > 100 µM | GI50 [7]: > 27.8 µM | TGI [7]: > 100 µM | GI50 [8]: 96.9 µM | TGI [8]: > 100 µM | GI50 [9]: 4.02 µM | TGI [9]: > 100 µM | GI50 [10]: 21.4 µM | TGI [10]: > 67.5 µM | GI50 [11]: 2.04 µM | TGI [11]: > 32.4 µM | GI50 [12]: > 100 µM | TGI [12]: > 100 µM | GI50 [13]: > 100 µM | TGI [13]: > 100 µM | GI50 [14]: > 100 µM | TGI [14]: > 100 µM | GI50 [15]: 21.2 µM | TGI [15]: > 72.3 µM | GI50 [16]: 6.72 µM | TGI [16]: > 100 µM | GI50 [17]: 6.74 µM | TGI [17]: > 90.5 µM | GI50 [18]: 1.58 µM | TGI [18]: 8.28 µM | GI50 [19]: 16.8 µM | TGI [19]: > 100 µM | GI50 [20]: > 85.1 µM | TGI [20]: > 100 µM | GI50 [21]: 1.98 µM | TGI [21]: > 100 µM | GI50 [22]: 14.9 µM | TGI [22]: > 100 µM | GI50 [23]: 8 µM | TGI [23]: 50.5 µM | GI50 [24]: 3.72 µM | TGI [24]: > 100 µM | GI50 [25]: 39.3 µM | TGI [25]: > 100 µM | GI50 [26]: 8.78 µM | TGI [26]: > 100 µM | GI50 [27]: 0.193 µM | TGI [27]: 1.66 µM | GI50 [28]: 1.83 µM | TGI [28]: 8.89 µM | GI50 [29]: 1.94 µM | TGI [29]: > 26.3 µM | GI50 [30]: > 100 µM | TGI [30]: > 100 µM | GI50 [31]: 6.56 µM | TGI [31]: > 89 µM | GI50 [32]: > 100 µM | TGI [32]: > 100 µM | GI50 [33]: 7.57 µM | TGI [33]: > 100 µM | GI50 [34]: 0.433 µM | TGI [34]: 3.47 µM | GI50 [35]: 7.14 µM | TGI [35]: > 51.9 µM | GI50 [36]: 9.26 µM | TGI [36]: > 100 µM | GI50 [37]: 0.329 µM | TGI [37]: > 25.8 µM | GI50 [38]: 23 µM | TGI [38]: > 100 µM | GI50 [39]: 3.79 µM | TGI [39]: > 100 µM | GI50 [40]: 11.9 µM | TGI [40]: > 96.6 µM | GI50 [41]: 6.46 µM | TGI [41]: > 100 µM | GI50 [42]: 11.2 µM | TGI [42]: > 100 µM | GI50 [43]: 4.58 µM | TGI [43]: > 100 µM | GI50 [44]: 7.94 µM | TGI [44]: > 88.4 µM | GI50 [45]: 1.97 µM | TGI [45]: > 100 µM | GI50 [46]: 0.849 µM | TGI [46]: > 100 µM | GI50 [47]: 1.93 µM | TGI [47]: > 100 µM
